# Laboratory results: PubChem BioAssay (NCI)
#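 Values below derive from 48-hour exposures of cells grown in 96-well plates, with endpoints linearly interpolated between the two concentrations bracketing the appropriate inhibition level. The concentration for 50% growth inhibition is given as GI50. At the TGI there is no net growth.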
# Tests used:
# Assay in all cases: NCI tumour cell line growth inhibition, 48 h
# HCT-15 colon = system: HCT-15 colon
# NCI-H460 lung = system: NCI-H460 lung
# HCT-116 colon = system: HCT-116 colon
# SK-MEL-2 melanoma = system: SK-MEL-2 melanoma
# OVCAR-3 ovarian = system: OVCAR-3 ovarian
# SR leukemia = system: SR leukemia
# MOLT-4 leukemia = system: MOLT-4 leukemia
# MDA-MB-435 = system: MDA-MB-435
# K-562 leukemia = system: K-562 leukemia
# SF-295 CNS = system: SF-295 CNS
SMILES,GI50 (HCT-15 colon),TGI (HCT-15 colon),GI50 (NCI-H460 lung),TGI (NCI-H460 lung),GI50 (HCT-116 colon),TGI (HCT-116 colon),GI50 (SK-MEL-2 melanoma),TGI (SK-MEL-2 melanoma),GI50 (OVCAR-3 ovarian),TGI (OVCAR-3 ovarian),GI50 (SR leukemia),TGI (SR leukemia),GI50 (MOLT-4 leukemia),TGI (MOLT-4 leukemia),GI50 (MDA-MB-435),TGI (MDA-MB-435),GI50 (K-562 leukemia),TGI (K-562 leukemia),GI50 (SF-295 CNS),TGI (SF-295 CNS)
O=C1/C(=C/c2ccc(Cl)c(Cl)c2)CN(C(=O)C(Cl)Cl)C/C1=C\c1ccc(Cl)c(Cl)c1,0.033 µM,0.802 µM,0.261 µM,0.935 µM,0.0315 µM,0.12 µM,0.801 µM,3.14 µM,0.0571 µM,0.237 µM,0.0267 µM,> 100 µM,0.0985 µM,> 100 µM,0.222 µM,0.546 µM,0.0369 µM,> 36.2 µM,0.154 µM,0.704 µM
CCN(CC)c1ccc(/C=C/C(=O)c2ccc(Nc3nc(Nc4ccccc4)nc(Nc4ccccc4)n3)cc2)cc1,2.54 µM,> 100 µM,2.55 µM,17.6 µM,2.47 µM,> 100 µM,4.04 µM,85.2 µM,2.12 µM,20 µM,1.03 µM,3.86 µM,2.08 µM,12 µM,9.26 µM,> 100 µM,–,–,1.41 µM,23.3 µM
C[C@H]1CC[P+](Cc2ccccc2)(c2ccccc2)C1 (stereo partly specified),–,> 100 µM,–,> 100 µM,–,> 100 µM,–,> 100 µM,–,> 100 µM,–,> 100 µM,–,> 100 µM,–,–,–,> 100 µM,–,> 100 µM
C[C@@]1([C@H](OC(=O)c2ccccc2)C(N)=O)CO1,20.8 µM,54.9 µM,20.6 µM,53 µM,17.5 µM,58.6 µM,22.1 µM,> 100 µM,16.4 µM,35.4 µM,–,–,35.7 µM,> 100 µM,17.8 µM,36 µM,5.67 µM,> 100 µM,16.9 µM,41.5 µM
Cn1cc(/C=C\[N+](=O)[O-])c2ccccc21,44.3 µM,> 100 µM,38.6 µM,> 100 µM,19 µM,43 µM,> 100 µM,> 100 µM,28.1 µM,> 100 µM,–,–,23.7 µM,58.4 µM,27.7 µM,84.7 µM,34.8 µM,> 100 µM,52.9 µM,> 100 µM
CCOC(=O)CSc1cc(Cl)c(C)cc1S(=O)(=O)/N=C(/N=C/c1ccc([N+](=O)[O-])s1)NNC,18.8 µM,47.8 µM,35.1 µM,> 100 µM,13.5 µM,26.3 µM,31 µM,59.1 µM,10.3 µM,24.7 µM,–,–,16.7 µM,44.3 µM,16.3 µM,37.6 µM,–,–,16.1 µM,47 µM
CCCNC(=O)Nc1c([N+](=O)[O-])cc(C(F)(F)F)cc1[N+](=O)[O-],–,> 100 µM,–,> 100 µM,–,> 100 µM,–,> 100 µM,–,61.2 µM,–,> 100 µM,–,> 100 µM,–,–,–,> 100 µM,–,> 100 µM
Cc1ccccc1N=Nc1c(O)ccc2ccccc12,–,> 100 µM,–,–,–,> 100 µM,–,> 100 µM,–,> 100 µM,–,–,–,> 100 µM,–,> 100 µM,–,> 100 µM,–,> 100 µM
Cc1cc(=O)oc2ccc(OC/C=C3\CCC(=O)O3)cc12,3.5 µM,11.5 µM,17.3 µM,43 µM,3.82 µM,15.1 µM,10.7 µM,30.6 µM,3.59 µM,18.4 µM,–,–,3.05 µM,> 100 µM,7.65 µM,22.8 µM,7.79 µM,> 100 µM,15.3 µM,41.9 µM
COc1ccc2nc3cc(Cl)ccc3c(NCCCNCCO)c2c1,0.577 µM,3.15 µM,0.275 µM,1.2 µM,0.326 µM,1.43 µM,1.32 µM,2.79 µM,0.588 µM,2.86 µM,–,–,0.413 µM,3.4 µM,0.522 µM,1.88 µM,0.383 µM,2.4 µM,0.523 µM,2.32 µM
Nc1nnc2c(-c3ccccc3)[nH]nc2n1,–,> 100 µM,–,> 100 µM,–,> 100 µM,–,> 100 µM,–,> 100 µM,–,> 100 µM,–,> 100 µM,–,–,–,> 100 µM,–,> 100 µM
